Laboratory results taken from publication PMC10135272, “Synthesis, Molecular Docking Study, and Biological Evaluation of New 4-(2,5-Dimethyl-1H-pyrrol-1-yl)-N’-(2-(substituted)acetyl)benzohydrazides as Dual Enoyl ACP Reductase and DHFR Enzyme Inhibitors” (Antibiotics, 2023).
Values after ≈ are worked out from the molar mass of the structure shown. Read-outs that look alike come from different tables or passages of the source.

Columns and labels:
M. tuberculosis H37Rv = test: Antitubercular activity, Microplate Alamar Blue assay (MABA); type: cell-based; details: Mycobacterium tuberculosis, average of triplicate tests
S. aureus (Gram +ve) = test: Antibacterial activity, broth microdilution; type: cell-based; details: Staphylococcus aureus
E. coli (Gram −ve) = test: Antibacterial activity, broth microdilution; type: cell-based; details: Escherichia coli
MtDHFR = MtDHFR (Mycobacterium tuberculosis, UniProt P9WNX1); test: biochemical; type: biochemical; details: for MtDHFR inhibitory activity (in words): in vitro assay
Chain of MtDHFR (P9WNX1 whole entry): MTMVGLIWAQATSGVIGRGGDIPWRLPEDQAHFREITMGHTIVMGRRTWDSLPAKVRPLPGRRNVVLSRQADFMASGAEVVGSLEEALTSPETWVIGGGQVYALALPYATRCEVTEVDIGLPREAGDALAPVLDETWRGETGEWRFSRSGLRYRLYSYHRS

[1] = molecular target: InhA (enoyl ACP reductase) (Mycobacterium tuberculosis, UniProt P9WGR1); test: Enoyl ACP reductase (InhA) inhibition; type: biochemical; details: for enoyl ACP reductase inhibitory activity (in words): in vitro assay
Chain of InhA (enoyl ACP reductase) (P9WGR1 whole entry, looked up): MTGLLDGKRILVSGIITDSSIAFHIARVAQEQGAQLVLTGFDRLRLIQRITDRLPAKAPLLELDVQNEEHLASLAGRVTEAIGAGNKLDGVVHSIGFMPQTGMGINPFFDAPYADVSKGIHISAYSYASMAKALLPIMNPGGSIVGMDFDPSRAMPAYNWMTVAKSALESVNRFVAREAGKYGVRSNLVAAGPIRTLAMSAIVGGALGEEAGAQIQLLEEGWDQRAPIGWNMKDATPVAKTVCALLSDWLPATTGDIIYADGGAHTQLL

MTT-based cytotoxicity [2] = type: cell-based; details: African green monkey; MTT assay, Mammalian Vero cell lines, means ± SEM of three independent experiments; read-out: IC50 MV Cell Lines (cytotoxicity)
Procedure: (§1) Cellular conversion of MTT (3-(4,5-dimethylthiazo-2-yl)-2,5-diphenyl-tetrazolium bromide) into a formazan product was performed to evaluate the cytotoxic activity (IC50) of some of the compounds against A549 (lung adenocarcinoma) MV cell lines up to a concentration of […] using a Promega Cell Titer 96 non-radioactive cell proliferation assay with cisplatin as the positive control. The IC50 values given in Table 6 are the averages ± SEM of three independent measurements.

MTT-based cytotoxicity [3] = type: cell-based, human; details: human; MTT assay, A549 lung adenocarcinoma, means ± SEM of three independent experiments
Procedure: as §1

[4] = tested on: Mammalian Vero cell lines (MV cell lines); test: MTT-based cytotoxicity; type: cell-based
Procedure: as §1

[5] = tested on: A549 (lung adenocarcinoma) cell lines; test: MTT-based cytotoxicity; type: cell-based, human
Procedure: as §1

| Compound | MIC (M. tuberculosis H37Rv) [mg/L] | MIC (S. aureus (Gram +ve)) [mg/L] | MIC (E. coli (Gram −ve)) [mg/L] | IC50 (MtDHFR) [µM] | MtDHFR inhibitory activity (in words) (MtDHFR) | inhibition at 50 µM [1] [%] | enoyl ACP reductase inhibitory activity (in words) [1] | IC50 (MTT-based cytotoxicity [2]) [µM] | IC50 (MTT-based cytotoxicity [3]) [µM] | IC50 [4] [µM] | IC50 [5] [µM] |
| --- | --- | --- | --- | --- | --- | --- | --- | --- | --- | --- | --- |
| Cc1ccc(C)n1-c1ccc(C(=O)NNC(=O)Cc2ccccc2)cc1 [Compound 5a, 4-(2,5-Dimethyl-1H-pyrrol-1-yl)-N′-(2-phenylacetyl)benzohydrazide] | 25 (≈ 72 µM) | 50 (≈ 144 µM) | 50 (≈ 144 µM) | 146 | – | – | – | – | – | – | – |
| COc1ccccc1CC(=O)NNC(=O)c1ccc(-n2c(C)ccc2C)cc1 [Compound 5e, 4-(2,5-Dimethyl-1H-pyrrol-1-yl)-N′-(2-(2-methoxyphenyl)acetyl)benzohydrazide] | 6.25 (≈ 16.6 µM) | 6.25 (≈ 16.6 µM) | 100 (≈ 265 µM) | 78 | – | – | – | – | – | – | – |
| Cc1ccc(C)n1-c1ccc(C(=O)NNC(=O)Cc2ccc(Cl)cc2)cc1 [Compound 5f, N′-(2-(4-Chlorophenyl)acetyl)-4-(2,5-dimethyl-1H-pyrrol-1-yl)benzohydrazide] | 1.6 (≈ 4.19 µM) | 1.6 (≈ 4.19 µM) | 50 (≈ 131 µM) | 25 | promising enzyme inhibitory activity | 76 | promising enzyme inhibitory activity | 215 ± 0.2 | 216 ± 0.5 | – | – |
| Cc1ccc(C)n1-c1ccc(C(=O)NNC(=O)Cc2ccccc2Cl)cc1 [Compound 5g, N′-(2-(2-Chlorophenyl)acetyl)-4-(2,5-dimethyl-1H-pyrrol-1-yl)benzohydrazide] | 3.25 (≈ 8.51 µM) | 3.12 (≈ 8.17 µM) | 50 (≈ 131 µM) | 26 | – | – | – | – | – | – | – |
| Cc1ccc(C)n1-c1ccc(C(=O)NNC(=O)Cc2cccc(Cl)c2)cc1 [Compound 5h, N′-(2-(3-Chlorophenyl)acetyl)-4-(2,5-dimethyl-1H-pyrrol-1-yl)benzohydrazide] | 3.25 (≈ 8.51 µM) | 6.25 (≈ 16.4 µM) | 50 (≈ 131 µM) | 30 | – | – | – | – | – | – | – |
| NNC(=O)c1ccncc1 [INH, reference compound] | – | – | – | – | – | – | – | – | – | > 450 | > 450 |
| NC(=O)c1cnccn1 [Pyrazinamide, reference compound] | 3.12 (≈ 25.4 µM) | – | – | – | – | – | – | – | – | – | – |
| COc1ccc(CC(=O)NNC(=O)c2ccc(-n3c(C)ccc3C)cc2)cc1 [Compound 5d, 4-(2,5-Dimethyl-1H-pyrrol-1-yl)-N′-(2-(4-methoxyphenyl)acetyl)benzohydrazide] | 3.25 (≈ 8.61 µM) | 3.12 (≈ 8.27 µM) | 100 (≈ 265 µM) | 85 | – | 32 | – | 214 ± 0.6 | 214 ± 0.2 | – | – |
| Cc1ccc(C)n1-c1ccc(C(=O)NNC(=O)Cc2ccc(O)cc2)cc1 [Compound 5l, 4-(2,5-Dimethyl-1H-pyrrol-1-yl)-N′-(2-(4-hydroxyphenyl)acetyl)benzohydrazide] | 3.25 (≈ 8.94 µM) | 6.25 (≈ 17.2 µM) | 50 (≈ 138 µM) | 30 | – | – | – | – | – | – | – |
| Cc1ccc(C)n1-c1ccc(C(=O)NNC(=O)Cc2cccc(Br)c2)cc1 [Compound 5m, 4-(2,5-Dimethyl-1H-pyrrol-1-yl)-N′-(2-(3-bromophenyl)acetyl)benzohydrazide] | 3.25 (≈ 7.62 µM) | 12.5 (≈ 29.3 µM) | 50 (≈ 117 µM) | 18 | – | – | – | – | – | – | – |
| Cc1ccc(C)n1-c1ccc(C(=O)NNC(=O)Cc2ccc([N+](=O)[O-])cc2)cc1 [Compound 5n, 4-(2,5-Dimethyl-1H-pyrrol-1-yl)-N′-(2-(4-nitrophenyl)acetyl)benzohydrazide] | 1.6 (≈ 4.08 µM) | 12.5 (≈ 31.9 µM) | 50 (≈ 127 µM) | 15 | – | – | – | – | – | – | – |
| O=C(O)c1cn(C2CC2)c2cc(N3CCNCC3)c(F)cc2c1=O [Ciprofloxacin, reference compound] | – | 2 (≈ 6.04 µM) | 2 (≈ 6.04 µM) | – | – | – | – | – | – | – | – |
| Cc1ccccc1CC(=O)NNC(=O)c1ccc(-n2c(C)ccc2C)cc1 [Compound 5b, 4-(2,5-Dimethyl-1H-pyrrol-1-yl)-N′-(2-(o-tolyl)acetyl)benzohydrazide] | 25 (≈ 69.2 µM) | 0.8 (≈ 2.21 µM) | 50 (≈ 138 µM) | 125 | – | – | – | – | – | – | – |
| [H]/N=C(/N)N[C@H]1[C@H](O)[C@@H](O)[C@H](O[C@@H]2O[C@@H](C)[C@](O)(C=O)[C@H]2O[C@@H]2O[C@@H](CO)[C@H](O)[C@@H](O)[C@@H]2NC)[C@@H](N/C(N)=N\[H])[C@@H]1O [Streptomycin, reference compound] | 6.25 (≈ 10.7 µM) | – | – | – | – | – | – | – | – | – | – |
| Cc1ccc(C)n1-c1ccc(C(=O)NNC(=O)Cc2ccc(Br)cc2)cc1 [Compound 5i, N′-(2-(4-Bromophenyl)acetyl)-4-(2,5-dimethyl-1H-pyrrol-1-yl)benzohydrazide] | 1.6 (≈ 3.75 µM) | 6.25 (≈ 14.7 µM) | 50 (≈ 117 µM) | 18 | promising enzyme inhibitory activity | 72 | promising enzyme inhibitory activity | 218 ± 0.3 | 214 ± 0.4 | – | – |
| Cc1ccc(C)n1-c1ccc(C(=O)NNC(=O)Cc2ccccc2Br)cc1 [Compound 5j, N′-(2-(2-Bromophenyl)acetyl)-4-(2,5-dimethyl-1H-pyrrol-1-yl)benzohydrazide] | 1.6 (≈ 3.75 µM) | 6.25 (≈ 14.7 µM) | 50 (≈ 117 µM) | 15 | – | – | – | – | – | – | – |
| Cc1ccc(C)n1-c1ccc(C(=O)NNC(=O)Cc2ccc(F)cc2)cc1 [Compound 5k, 4-(2,5-Dimethyl-1H-pyrrol-1-yl)-N′-(2-(4-flurophenyl)acetyl)benzohydrazide] | 0.8 (≈ 2.19 µM) | 1.6 (≈ 4.38 µM) | 50 (≈ 137 µM) | 10 | promising enzyme inhibitory activity | 88 | promising enzyme inhibitory activity | 221 ± 0.3 | 219 ± 0.4 | – | – |
| Cc1ccc(CC(=O)NNC(=O)c2ccc(-n3c(C)ccc3C)cc2)cc1 [Compound 5c, 4-(2,5-Dimethyl-1H-pyrrol-1-yl)-N′-(2-(p-tolyl)acetyl)benzohydrazide] | 25 (≈ 69.2 µM) | 3.12 (≈ 8.63 µM) | 50 (≈ 138 µM) | 118 | – | 20 | – | 221 ± 0.8 | 219 ± 0.7 | – | – |
